According to EP0224596A1, “Use of dibenzocyclooctadiene lignans extracted from Schisandrae Fructus for the manufacture of a medicament for the treatment of hepatic failure” (priority 1985, dated 1986):

Columns and labels:
[1] = tested on: mice with acute hepatic failure; test: Effect on survival ratio of mice with acute hepatic failure (heat-killed P. acnes + LPS); assay type: in vivo, male balb/c strain mice; settings: survival twenty-four hours after injection of LPS, control 7.5
Protocol: Seven groups of male balb/c strain mice (six weeks of age) were used. Each group included 40 mice. Acute hepatic failure was induced by the injection of 1 µg/mouse of LPS (lipopolysaccharide, Difco Laboratories) to mice that had been injected with 1 mg/mouse of heat-killed P. acnes (Propionibacterium acnes, First Department of Biochemistry in Osaka City Univ. Medical School) seven days before. The above obtained compounds (deoxyschizandrin, gomisin N, schizandrin, gomisin A, q-schizandrin and wuweizisu C) which had been suspended in 0.5% CMC (carboxymethyl cellulose, Wako Junyaku Kogyo, Co. Ltd.), was given p.o. to each group eight hours after the injection of LPS. Only vehicle (CMC) was given p.o. to one remaining group as a control group.
Survival ratio of mice was periodically examined twenty-four hours after induction of acute hepatic failure. Each dose of the above compounds and corresponding survival ratio twenty-four hours after the injection of LPS are shown in Table 1.

[2] = Acute toxicity LD50, p.o.; settings: mouse, in vivo, po; p.o. in ddY mice
Description: And estimated clinical daily doses of the present therapeutic drugs for patients with hepatic failure are also given in Table 2.

[3] = tested on: rats with acute hepatic failure; test: Survival ratio and serum GOT in acute hepatic failure induced by P. acnes + LPS; assay type: in vivo, male Wistar rats; settings: for survival ratio: LPS on day seven, control 8.8%
Protocol: Three groups of male Wistar rats were used. Each group included 45 rats. Each rat in all groups was injected with 10 mg/rat of P. acnes. Four days after, gomisin A (100mg/kg, […]) obtained in Production Example 3 were suspended in 2% Tween 80/saline and administered i.p. to respectively two of three groups. Only vehicle (2% Tween 80/saline) was administered i.p. to one remaining group as a control group. All rats were injected with 50µg/rat of LPS, seven days after the injection of P. acnes. Twenty-four hours after the injection of LPS, blood samples were collected from surviving rats by heart puncture, and serum GOT activities were measured. GOT is one of amino acid transferases contained in liver cells. High serum GOT activities reflect large number of destroyed liver cells.

[4] = dose 50 mg/kg p.o. in 0.5% CMC eight hours after LPS
[5] = dose 20 mg/kg p.o. in 0.5% CMC eight hours after LPS

| SMILES | Survival Ratio (%) [1, 4] [%] | LD50 [2] [mg/kg] | Survival Ratio (%) [1, 5] [%] | other results |
| --- | --- | --- | --- | --- |
| COc1cc2c(c(OC)c1OC)-c1c(cc(OC)c(OC)c1OC)C[C@H](C)[C@H](C)C2 [Deoxyschizandrin, deoxyschizandrin] | 55 | 2000 | – | – |
| COc1cc2c(c(OC)c1OC)-c1c(cc3c(c1OC)OCO3)CC(C)C(C)(O)C2 (centres unmarked) [Gomisin A, gomisin A] | – | 777 | – | Survival Ratio (%) ([1]; dose 10 mg/kg p.o. in 0.5% CMC eight hours after LPS): 80%; survival ratio ([3]; 50mg/kg i.p. in 2% Tween 80/saline four days after P. acnes): 83.3%; survival ratio ([3]; 100mg/kg i.p. in 2% Tween 80/saline four days after P. acnes): 100%; average serum GOT activities ([3]; 100mg/kg i.p., surviving rats, twenty-four hours after injection of LPS, control 7000 IU): 140 IU |
| COc1cc2c(c(OC)c1OC)-c1c(cc3c(c1OC)OCO3)CC(C)C(C)C2 (centres unmarked) [Gomisin N, gomisin N] | – | 2000 | 80 | – |
| COc1cc2c(c(OC)c1OC)-c1c(cc(OC)c(OC)c1OC)C[C@](C)(O)[C@@H](C)C2 [Schizandrin, schizandrin] | 50 | 1450 | – | – |
| COc1c2c(cc3c1-c1c(cc4c(c1OC)OCO4)CC(C)C(C)C3)OCO2 (centres unmarked) [Wuweizisu C] | – | 2000 | 70 | – |
| COc1cc2c(c(OC)c1OC)-c1c(cc3c(c1OC)OCO3)CC(C)C(C)C2 (centres unmarked) [γ-Schizandrin, γ-schizandrin] | 60 | – | – | – |
